Laboratory results: patent publication US20250171434A1, “SEC61 INHIBITORS AND USE THEREOF” (KEZAR LIFE SCIENCES, INC., priority 2022, published 2025)
Where two headings read alike, the source gives them in different places.

Assays:
[1] = Liver Microsome Stability Assay, rat; type: in vitro ADME; settings: rat liver microsomes 1.0 mg/mL, 1.0 uM compound, 37° C., 1 mM NADPH
Method: (§1) Stability of a compound was assessed in the presence of liver microsomes from various sources—mouse, rat, monkey and human liver microsomes. 1.0 uM compound, 0.4% DMSO in 0.1 M Potassium Phosphate with 1.0 mg/mL liver microsomes, were incubated at 37° C. with or without 1 mM NADPH. The samples were quenched at 0, and 30 minutes.

[2] = test system: PD1-ss+10aa/Gaussia Luciferase; experiment: Dox-Induced PD1-ss-Gluc Assay; type: cell-based
Text: Flp-In 293 T-REx™ cells were transfected with pcDNA™5/FRT/TO plasmid inserted with cDNA encoding Gaussia Luciferase fused to the 3′ end of cDNA encoding PD1 signal sequence plus 10 amino acids (N-[…]-C) (SEQ ID NO: 1). Transfected cells were selected for resistance to the selectable markers Hygromycin and Blasticidin to create a stable cell line that contained the PD1-ss+10aa/Gaussia Luciferase cDNA insert whose expression was regulated under the T-REx™ system. The day before assay, cells were trypsinized and plated in 384-well tissue culture plates. The next day, compound dilutions in DMSO/media containing doxycycline were added to the wells and incubated at 37° C., 5% CO2.
(§2) For chemical structures that include one or more stereoisomers, but are illustrated without indicating stereochemistry, the assay data refers to a mixture of stereoisomers.

[3] = test system: IL-2-FL/Gaussia Luciferase; experiment: Dox Inducible IL2-FL-Gluc Assay; type: cell-based
Text: Flp-In 293 T-REx™ cells were transfected with pcDNA™5/FRT/TO plasmid inserted with cDNA encoding Gaussia Luciferase fused to the 3′ end of cDNA encoding full length IL-2 (amino acids 1-153). Transfected cells were selected for resistance to the selectable markers Hygromycin and Blasticidin to create a stable cell line that contained the IL-2-FL/Gaussia Luciferase cDNA insert whose expression was regulated under the T-REx™ system. The day before assay, cells were trypsinized and plated in 384-well tissue culture plates. The next day, compound dilutions in DMSO/media containing doxycycline were added to the wells and incubated at 37° C., 5% CO2.
as §2

[4] = Liver Microsome Stability Assay, human; type: in vitro ADME; settings: human liver microsomes 1.0 mg/mL, 1.0 uM compound, 37° C., 1 mM NADPH
Method: as §1

[5] = test system: multiple myeloma cell line U266B1; experiment: U266 Cell Viability Assay; type: cell-based; settings: Homo sapiens
Method: (§3) The human multiple myeloma cell line U266B1 was cultured in RPMI 1640 media supplemented with 10% fetal bovine serum, 2 mM Glutamine, and 1× Penicillin/Streptomycin. Cells were plated in 384-well tissue culture plates and treated with compound dilutions in DMSO/media. Plates were incubated at 37° C., 5% CO2 for 48 hours. After 48 hours, Celltiter-Glo® (Promega) was added to each well and luciferase signal was quantified using Tecan Infinite M1000 Pro for cell viability determination.
as §2

[6] = test system: multiple myeloma cell line NCI-H929; experiment: H929 Cell Viability Assay; type: cell-based, human; settings: Homo sapiens
Method: as §3, with “NCI-H929” for “U266B1”, “cultured in Advanced RPMI 1640 media (Gibco®) supplemented with 6% fetal bovine serum, 2 mM Glutamine, and 1× Penicillin/Streptomycin. On the day of assay, cells were resuspended” for “cultured”, “Penicillin/Streptomycin and” for “Penicillin/Streptomycin. Cells were”
as §2

[7] = Liver Microsome Stability Assay, monkey; type: in vitro ADME; settings: monkey liver microsomes 1.0 mg/mL, 1.0 uM compound, 37° C., 1 mM NADPH
Method: as §1

[8] = Liver Microsome Stability Assay, mouse; type: in vitro ADME; settings: mouse liver microsomes 1.0 mg/mL, 1.0 uM compound, 37° C., 1 mM NADPH
Method: as §1

[9] = test system: IL6R-ss+10aa/Gaussia Luciferase; experiment: Dox-induced IL-6R-ss-Gluc Assay; type: cell-based
Text: Flp-In 293 T-REx™ cells were transfected with pcDNATM5/FRT/TO plasmid inserted with cDNA encoding Gaussia Luciferase fused to the 3′ end of cDNA encoding IL6R signal sequence plus 10 amino acids (N-[…]-C). Transfected cells were selected for resistance to the selectable markers Hygromycin and Blasticidin to create a stable cell line that contained the IL6R-ss+10aa/Gaussia Luciferase cDNA insert whose expression was regulated under the T-REx™ system. The day before assay, cells were trypsinized and plated in 384-well tissue culture plates. The next day, compound dilutions in DMSO/media containing doxycycline were added to the wells and incubated at 37° C., 5% CO2.
as §2

CD47(ss + 10)Gluc = experiment: Dox-Induced CD47-ss-Gluc Assay; type: cell-based
[10] = Flp-In 293 T-REx cells, 24 hours with doxycycline; Table 1; read-out: 24 hr Dox Inducible PD1ssGluc 293FRT/TO: Mean IC50
[11] = Flp-In 293 T-REx cells, 24 hours with doxycycline; Table 1; read-out: 24 hr Dox Inducible IL2FLGluc 293FRT/TO: Mean IC50
[12] = ratio of IC50s IL2/PD1; Table 1
[13] = U-266, U266B1 cells, 48 hours, Celltiter-Glo, read-out: 48 hr U266 Viability Celltiter-Glo: Mean EC50
[14] = NCI-H929 cells, 48 hours, Celltiter-Glo, read-out: 48 hr H929 Viability Celltiter-Glo: Mean EC50
[15] = Flp-In 293 T-REx cells, 24 hours with doxycycline; Table 1; read-out: 24hr Dox Inducible IL6R(ss + 10)Gluc 293FRT/TO: Mean IC50
[16] = ratio of IC50s IL6R/PD1; Table 1
[17] = Flp-In 293 T-REx cells, 24 hours with doxycycline; Table 1; read-out: 24 hr Dox Inducible CD47(ss + 10)Gluc 293FRT/TO: Mean IC50
[18] = read-out: 24 hr Dox Inducible PD1ssGluc 293FRT/TO: Mean IC50; Flp-In 293 T-REx cells, 24 hours with doxycycline; Table 1
[19] = read-out: 24 hr Dox Inducible IL2FLGluc 293FRT/TO: Mean IC50; Flp-In 293 T-REx cells, 24 hours with doxycycline; Table 1
[20] = U-266, 48 h, read-out: 48 hr U266 Viability Celltiter-Glo: Mean EC50 (nM)
[21] = NCI-H929, 48 h, read-out: 48 hr H929 Viability Celltiter-Glo: Mean EC50 (nM)
[22] = read-out: 24hr Dox Inducible IL6R(ss + 10)Gluc 293FRT/TO: Mean IC50; Flp-In 293 T-REx cells, 24 hours with doxycycline; Table 1
[23] = read-out: 24 hr Dox Inducible CD47(ss + 10)Gluc 293FRT/TO: Mean IC50; Flp-In 293 T-REx cells, 24 hours with doxycycline; Table 1

Structure (SMILES) | Liver Microsome Stability (Multiple Species): Rat - % Remaining after 30 min w/ NADPH (%) [1] [%] | IC50 [2, 10] [µM] | IC50 [3, 11] [µM] | 24 hr Dox Inducible IL2FLGluc 293FRT/TO: IL2/PD1 [3, 12] | Liver Microsome Stability (Multiple Species): Human - % Remaining after 30 min w/ NADPH (%) [4] [%] | EC50 [5, 13] [nM] | EC50 [6, 14] [nM] | Liver Microsome Stability (Multiple Species): Monkey - % Remaining after 30 min w/ NADPH (%) [7] [%] | Liver Microsome Stability (Multiple Species): Mouse - % Remaining after 30 min w/ NADPH (%) [8] [%] | IC50 [9, 15] [µM] | 24hr Dox Inducible IL6R(ss + 10)Gluc 293FRT/TO: IL6R/PD1 [9, 16] | IC50 (CD47(ss + 10)Gluc; [17]) [µM] | IC50 [2, 18] [µM] | IC50 [3, 19] [µM] | EC50 [5, 20] [nM] | EC50 [6, 21] [nM] | IC50 [9, 22] [µM] | IC50 (CD47(ss + 10)Gluc; [23]) [µM]
CC(C)n1cnc(/C=C/c2csc(NC(=O)c3cc(Cl)cn3Cc3ccnc(F)c3)n2)c1Cl [Compound A1] | 82 | 0.03 | 2.02 | 66 | 11 | > 25000 | > 25000 | 31 | 71 | 1.89 | 62 | 1.86 |  |  |  |  |  | 
COc1cc(C(=O)Nc2nc(/C=C/c3ncn(C(C)C)c3Cl)cs2)n(Cc2ccnc(F)c2)c1 [Compound A2, (E)-N-(4-(2-(5-chloro-1-isopropyl-1H-imidazol-4-yl)vinyl)thiazol-2-yl)-1-((2-fluoropyridin-4-yl)methyl)-4-methoxy-1H-pyrrole-2-carboxamide] | 72 | 0.024 | 4.17 | 170 | 15 | > 25000 | > 25000 | 35 | 68 | 3.27 | 133 | 3.81 |  |  |  |  |  | 
O=C(Nc1nc(/C=C/c2cn(C(F)(F)F)cn2)cs1)c1cc(Cl)cn1Cc1ccnc(F)c1 [Compound A3, (E)-4-chloro-1-((2-fluoropyridin-4-yl)methyl)-N-(4-(2-(1-(trifluoromethyl)-1H-imidazol-4-yl)vinyl)thiazol-2-yl)-1H-pyrrole-2-carboxamide] | 21 | 1.76 | 12.2 | 7 | 6 | > 20200 | 4550 | 4 | 61 | 4.68 | 3 | 15.2 |  |  |  |  |  | 
CC(C(F)F)n1cnc(/C=C/c2csc(NC(=O)c3cc(Cl)cn3Cc3ccnc(F)c3)n2)c1 (stereo not drawn) [Compound A4, (E)-4-chloro-N-(4-(2-(1-(1,1-difluoropropan-2-yl)-1H-imidazol-4-yl)vinyl)thiazol-2-yl)-1-((2-fluoropyridin-4-yl)methyl)-1H-pyrrole-2-carboxamide] | 73 |  |  | 21 | 3 |  |  | 4 | 80 |  | 11 |  | 0.604 | 12.7 | > 25000 | > 23300 | 6.77 | 6.23
O=C(Nc1nc(/C=C/c2cn(C(F)F)cn2)cs1)c1cc(Cl)cn1Cc1ccnc(F)c1 [Compound A5, (E)-4-chloro-N-(4-(2-(1-(difluoromethyl)-1H-imidazol-4-yl)vinyl)thiazol-2-yl)-1-((2-fluoropyridin-4-yl)methyl)-1H-pyrrole-2-carboxamide] | 42 |  |  | >57 | 4 |  |  | 2 | 73 |  | >57 |  | 0.436 | > 25 | 16800 | 10100 | > 25 | > 25
O=C(Nc1nc(/C=C/C2CCC(F)(F)CC2)cs1)c1cccn1Cc1ccnc(F)c1 [Compound B29, (E)-N-(4-(2-(4,4-difluorocyclohexyl)vinyl)thiazol-2-yl)-1-((2-fluoropyridin-4-yl)methyl)-1H-pyrrole-2-carboxamide] |  | 0.112 | 1.43 | 12.0 |  |  |  |  |  | 0.922 | 8 | 0.838 |  |  |  |  |  | 
